Assay results reported in patent US20240293413A1, “COMPOUND AND METHOD FOR TREATING CHEMOTHERAPY-RELATED GASTROINTESTINAL SIDE EFFECTS” (ONQUALITY PHARMACEUTICALS CHINA LTD., priority 2021, published 2024).

How the values were obtained:
[1] = system: constipation caused by a chemotherapeutic agent in Balb/c mice; assay: Examples 406-443 (Table 8): various administration modes of the CDK inhibitor, relief of constipation caused by a chemotherapeutic agent; format: in vivo; settings: for Relative remission rate of oral administration: CDK inhibitor oral 150 mg/kg single;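 for all read-outs here: percent of treated mice relieved versus chemotherapy group by feces reduction rate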
Source text: Balb/c mice were fed for 1 week, and then divided into groups. The experiment was divided into a control group, a chemotherapeutic agent group, CDK inhibitor groups (including an oral administration group of a CDK inhibitor, an intravenous injection group of a CDK inhibitor, an intraperitoneal injection group of a CDK inhibitor, an intramuscular injection group of a CDK inhibitor, a local administration group of a CDK inhibitor), each of which comprised 10 mice, to perform the administration experiment, for which the administration dosage, mode, time and frequency were shown in Table 8. The control group: being administered with the same solvent as that used in the CDK inhibitor group (the time and mode were shown in Table 8), and then being injected/intragastrically administered with the same solvent as that used in the chemotherapeutic agent group (the administration mode was shown in Table 8): the chemotherapeutic agent group: being administered with the same solvent as that used in the CDK inhibitor group (the time and mode were shown in Table 8), and then being injected/intragastrically administered with the chemotherapeutic agent (the type, administration mode and dosage were shown in Table 8): the oral administration group of the CDK inhibitor: being intragastrically administered with the CDK inhibitor (the time was shown in Table 8), and then being administered with the chemotherapeutic agent (the mode and dosage were shown in Table 8): the intravenous injection group of the CDK inhibitor: being injected with the CDK inhibitor through tail vein (the time was shown in Table 8), and then being administered with the chemotherapeutic agent (the mode and dosage were shown in Table 8): the intraperitoneal injection group of the CDK inhibitor: being intraperitoneally injected with the CDK inhibitor (the time was shown in Table 8), and then being administered with the chemotherapeutic agent (the mode and dosage were shown in Table 8): the intramuscular injection group of the CDK inhibitor: being intramuscularly injected with the CDK inhibitor (the time was shown in Table 8), and then being administered with the chemotherapeutic agent (the mode and dosage were shown in Table 8); and the local administration group of the CDK inhibitor: the hair on the abdomen of mice was shaved (about 2 cm*2 cm), being applied with the CDK inhibitor (the time was shown in Table 8), and then being administered with the chemotherapeutic agent (the mode and dosage were shown in Table 8).
Feces reduction rate (%)=(the control group−the chemotherapeutic agent group or the CDK inhibitor group)/the control group*100%
The feces amount of mice within 3 hours was observed and recorded every day.

[2] = system: diarrhea caused by a chemotherapeutic agent in Balb/c mice; assay: Examples 382-405 (Table 7): various administration modes of the CDK inhibitor, relief of diarrhea caused by a chemotherapeutic agent; format: in vivo; settings: for Relative remission rate of oral administration: CDK inhibitor oral 150 mg/kg single
Source text: Balb/c mice were fed for 1 week, and then divided into groups. The experiment was divided into a control group, a chemotherapeutic agent group, CDK inhibitor groups (including an oral administration group of a CDK inhibitor, an intraperitoneal injection group of a CDK inhibitor, an intramuscular injection group of a CDK inhibitor, a local administration group of a CDK inhibitor), each of which comprised 10 mice, to perform the administration experiment, for which the administration dosage, mode, time and frequency were shown in Table 7. The control group: being administered with the same solvent as that used in the CDK inhibitor group (the time and mode were shown in Table 7), and then being injected/intragastrically administered with the same solvent as that used in the chemotherapeutic agent group (the administration mode was shown in Table 7): the chemotherapeutic agent group: being administered with the same solvent as that used in the CDK inhibitor group (the time and mode were shown in Table 7), and then being injected/intragastrically administered with the chemotherapeutic agent (the type, administration mode and dosage were shown in Table 7): the oral administration group of the CDK inhibitor: being intragastrically administered with the CDK inhibitor (the time was shown in Table 7), and then being administered with the chemotherapeutic agent (the mode and dosage were shown in Table 7): the intraperitoneal injection group of the CDK inhibitor: being intraperitoneally injected with the CDK inhibitor (the time was shown in Table 7), and then being administered with the chemotherapeutic agent (the mode and dosage were shown in Table 7): the intramuscular injection group of the CDK inhibitor: being intramuscularly injected with the CDK inhibitor (the time was shown in Table 7), and then being administered with the chemotherapeutic agent (the mode and dosage were shown in Table 7); and the local administration group of the CDK inhibitor: the hair on the abdomen of mice was shaved (about 2 cm*2 cm), being applied with the CDK inhibitor (the time was shown in Table 7), and then being administered with the chemotherapeutic agent (the mode and dosage were shown in Table 7).
The diarrhea grading of mice was observed and recorded every day.

CCN1CCN(Cc2ccc(Nc3ncc(F)c(-c4cc(F)c5nc(C)n(C(C)C)c5c4)n3)nc2)CC1 [Abemaciclib]
Relative remission rate of other administration mode ([1]; Example 429, Carboplatin intravenous injection 120 mg/kg single, CDK inhibitor intramuscular injection 150 mg/kg single, 8 h before, cycle 10 days): 20%
Relative remission rate of oral administration ([1]; Example 429, Carboplatin intravenous injection 120 mg/kg single, 8 h before, cycle 10 days): 60%
Relative remission rate of other administration mode ([1]; Example 430, Gemcitabine intraperitoneal injection 120 mg/kg single, CDK inhibitor intraperitoneal injection 150 mg/kg single, 0.5 h before, cycle 8 days): 10%
Relative remission rate of oral administration ([1]; Example 430, Gemcitabine intraperitoneal injection 120 mg/kg single, 0.5 h before, cycle 8 days): 40%
Relative remission rate of other administration mode ([1]; Example 431, Gemcitabine intraperitoneal injection 120 mg/kg single, CDK inhibitor intraperitoneal injection 150 mg/kg single, 4 h before, cycle 8 days): 10%
Relative remission rate of oral administration ([1]; Example 431, Gemcitabine intraperitoneal injection 120 mg/kg single, 4 h before, cycle 8 days): 40%
Relative remission rate of other administration mode ([1]; Example 432, Gemcitabine intraperitoneal injection 120 mg/kg single, CDK inhibitor intraperitoneal injection 150 mg/kg single, 8 h before, cycle 8 days): 10%
Relative remission rate of oral administration ([1]; Example 432, Gemcitabine intraperitoneal injection 120 mg/kg single, 8 h before, cycle 8 days): 40%
Relative remission rate of other administration mode ([1]; Example 433, Gemcitabine intraperitoneal injection 120 mg/kg single, CDK inhibitor intraperitoneal injection 150 mg/kg single, 12 h before, cycle 8 days): 20%
Relative remission rate of oral administration ([1]; Example 433, Gemcitabine intraperitoneal injection 120 mg/kg single, 12 h before, cycle 8 days): 60%
Relative remission rate of other administration mode ([1]; Example 434, Gemcitabine intraperitoneal injection 120 mg/kg single, CDK inhibitor intraperitoneal injection 150 mg/kg single, 24 h before, cycle 8 days): 20%
Relative remission rate of oral administration ([1]; Example 434, Gemcitabine intraperitoneal injection 120 mg/kg single, 24 h before, cycle 8 days): 60%
Relative remission rate of other administration mode ([2]; Example 394, Carboplatin (CBP) intravenous injection 120 mg/kg single, CDK inhibitor intramuscular injection 150 mg/kg single, 8 h before, cycle 10 days): 20%
Relative remission rate of oral administration ([2]; Example 394, Carboplatin (CBP) intravenous injection 120 mg/kg single, 8 h before, cycle 10 days): 60%
Relative remission rate of other administration mode ([2]; Example 396, Gemcitabine (GEM) intraperitoneal injection 120 mg/kg single, CDK inhibitor intraperitoneal injection 150 mg/kg single, 0.5 h before, cycle 8 days): 10%
Relative remission rate of oral administration ([2]; Example 396, Gemcitabine (GEM) intraperitoneal injection 120 mg/kg single, 0.5 h before, cycle 8 days): 40%
Relative remission rate of other administration mode ([2]; Example 397, Gemcitabine (GEM) intraperitoneal injection 120 mg/kg single, CDK inhibitor intraperitoneal injection 150 mg/kg single, 4 h before, cycle 8 days): 20%
Relative remission rate of oral administration ([2]; Example 397, Gemcitabine (GEM) intraperitoneal injection 120 mg/kg single, 4 h before, cycle 8 days): 50%
Relative remission rate of other administration mode ([2]; Example 398, Gemcitabine (GEM) intraperitoneal injection 120 mg/kg single, CDK inhibitor intraperitoneal injection 150 mg/kg single, 8 h before, cycle 8 days): 30%
Relative remission rate of oral administration ([2]; Example 398, Gemcitabine (GEM) intraperitoneal injection 120 mg/kg single, 8 h before, cycle 8 days): 60%
Relative remission rate of other administration mode ([2]; Example 399, Gemcitabine (GEM) intraperitoneal injection 120 mg/kg single, CDK inhibitor intraperitoneal injection 150 mg/kg single, 12 h before, cycle 8 days): 30%
Relative remission rate of oral administration ([2]; Example 399, Gemcitabine (GEM) intraperitoneal injection 120 mg/kg single, 12 h before, cycle 8 days): 60%
Relative remission rate of other administration mode ([2]; Example 400, Gemcitabine (GEM) intraperitoneal injection 120 mg/kg single, CDK inhibitor intraperitoneal injection 150 mg/kg single, 24 h before, cycle 8 days): 10%
Relative remission rate of oral administration ([2]; Example 400, Gemcitabine (GEM) intraperitoneal injection 120 mg/kg single, 24 h before, cycle 8 days): 40%
